Laboratory results as given in patent US5679641A, “Peptides of human P53 protein for use in human T cell response inducing compositions, and human P53 protein-specific cytotoxic t-lymphocytes” (Rijksuniversiteit Leiden, priority 1992, dated 1997).
No end group written: not given here.

What was measured:
[1] = biological target: T1, HLA-A2.1 molecule (Homo sapiens, UniProt P04439, D140Y/D185E/D98H/E176V/E277Q/G131W/G231S/I119V/I121R/I166T/I218V/L300P/L318F/N151K/N90K/P208A/P217A/Q86G/Q94H/R138H/R169H/T345S); test: Peptide binding: upregulation of HLA-A2.1 expression on (174.CEM) T2 cells, FACScan; type: cell-based; conditions: for fluorescence ratio (i.e. binding ability): 200 μg/ml peptide, 16 hours at 37° C., (174.CEM) T2 cells, antibody BB7.2, mean fluorescence with peptide divided by without, positive when ratio of 1.2 is reached
T1 construct: endogenous in cells; host or cells: 174.CEM T2 (antigen-processing-defective human T x B hybrid cell line, provided by P. Cresswell)

[2] = test system: HLA-A2.1 positive PBL; test: Induction of primary in vitro CTL response with peptide loaded 174CEM.T2 cells, cloning of CTL; type: cell-based, human; conditions: peptide loaded antigen processing defective cell line 174.CEM T2, peptide 80 μg/ml, PBL of healthy HLA-A2.1 positive donor
Protocol: Responder T cells are included in mononuclear white blood cells (PBL) of an HLA-A2.1 positive healthy donor. The PBL were separated from a buffycoat by Ficoll procedure (LYMPHOPREP of Nycomed-pharma, Oslo, Norway, cat. no. 105033) and washed two times in RPMI 1640 (Gibco Paislan, Scotland, cat. no. 041-02409) supplemented with 30% pooled human serum (tested for its capacity to support mixed lymphocyte cultures), 2 mM glutamine (ICN Biochemicals, Inc., Costa Mesa, Calif., USA, cat. no. 15-801-55), penicillin (100 IU/ml, Brocades Pharma, Leiderdorp, The Netherlands), kanamycin ([…], Sigma, St. Louis, Mo., USA).
174CEM.T2 (T2) cells in a concentration of 2×10^6 per ml were incubated for 13 hours at 37° C. in a T25 flask (Falcon, Becton & Dickinson, Plymouth, England, cat. no. 3013) in serum-free ISCOVE's medium (Biochrom KG, Seromed, Berlin, Gemany, cat. no. F0465) with glutamine (2 mM, ICN Biochemicals Inc., Costa Mesa, Calif., USA, cat. no. 15-801-55) and antibiotics as mentioned under 2 and individual p53 peptides at a final concentration of 80 μg/ml. Subsequently the T2 cells were spun down and treated at a density of 20×10^6 cells/ml with Mitomycin C (final concentration 50 μg/ml) in serum-free RPMI 1640 (manufacturer see 2) medium during one hour at 37° C. Thereafter the T2 cells were washed three times in RPMI 1640. […]

| fluorescence ratio (i.e. binding ability) [1] | binding to HLA-A2.1 molecule (in words) ([1]; 174.CEM T2 cells, mean HLA-A2.1 fluorescence) | Molecule | primary in vitro human CTL response against the peptide [2] |
| --- | --- | --- | --- |
| 1.4 | – | CSCC[C@H](NC(=O)[C@H](CCCCN)NC(=O)[C@H](CC(N)=O)NC(=O)[C@H](CC(C)C)NC(=O)[C@H](C)N)C(=O)N[C@@H](Cc1ccccc1)C(=O)N[C@@H](CS)C(=O)N[C@@H](CCC(N)=O)C(=O)N[C@@H](CC(C)C)C(=O)N[C@@H](C)C(=O)O [compound 11, ALNKMFCOLA] | – |
| 1.2 | – | ALNKMFYQL [compound 27] | – |
| 1.3 | – | KLFCQLAXT (KLFCQLAKT) [compound 29, residues 132-140 of human mp53 (mutant p53)] | – |
| 1.7 | strong ability to bind to HLA-A2.1 | LLPENNVLS [compound 3, residues 25-33 of human p53] | possible so far to generate a primary in vitro human CTL response |
